# Patent US20250320288A1, “METHOD OF TREATING VITILIGO WITH INTERFERON-GAMMA ANTIBODY” (Elixiron Immunotherapeutics (Hong Kong), priority 2022, published 2025)
# “Also recorded” adds a separate entry of the source.
# Columns and labels:
# primary melanocytes [1] = experiment: Melanocyte cell viability after IFN-γ, chemokines, cell death inhibitors or 2A6Q, Day 2 and Day 7; format: cell-based, human; details: for rescue of IFN-γ induced melanocyte cell death (cell viability): melanocytes with IFN-γ, up to seven days
# Method: To determine cell viability of melanocyte after treatment with IFN-γ, CXCL9, CXCL10, CXCL11, at Day 2, and Day 7, the cells were collected and seeded into 96-well plates. After adhesion, cells were treated with IFN-γ (0, 10, 100 ng/ml) with different compounds: 2A6Q, CXCL9, CXCL10, CXCL11, ROS scavenger (NAC), necroptosis inhibitor (NEC-1), pyroptosis inhibitor (VX-765), apoptosis inhibitor (QVD-OPH), Ferroptosis inhibitor (Liproxstaitin-1, Ferrostatin-1, DFO). Cell viability was measured using a CellTiter-Glo luminescent cell viability assay kit (Promega) according to the manufacturer's protocol. The […] of the final reaction product was measured using a luminometer (SpectraMax® iD3 Multi-Mode Microplate Reader (Molecular Devices). After calculation, the viability of control cells was 100%, and all others were normalized to control and shown as relative cell viability (%). Treatment dosage N-acetylcysteine (NAC; 0.05 mM, 1 mM), Necrostatin-1 (NEC-1; 20 μM, 2 μM), Belnacasan (VX-765; 50 μg/mL, 5 μg/mL), Quinoline-Val Asp-Difluorophenoxymethylketone (QVD-OPH; 10 μM, 2 μM), Liproxstaitin-1 (10 μM, 5 μM, 1 μM, 0.05 μM), Ferrostatin-1 (5 μM, 1 μM), Deferoxamine (DFO; 10 μM, […], 1 μM, 0.05 μM), 2A6Q (10 μg/mL), CXCL9 (10 ng/mL, 10 pg/mL), CXCL10 (10 ng/ml, 10 pg/mL), CXCL11(10 ng/mL, 10 pg/mL).
# primary melanocytes [2] = experiment: Cell morphology assay in melanocytes; format: cell-based, human; details: primary melanocytes, 7 days of treatment
# [3] = cited from earlier work
molecule,measurement,setting,value
Clc1cccc(CN=C2Nc3ccccc3NC23CCNCC3)c1 [Liproxstatin-1],rescue of IFN-γ induced melanocyte cell death (cell viability),primary melanocytes [1],can partially rescue
"CC(=O)N[C@@H](CS)C(=O)O [NAC, N-acetylcysteine]",rescue of IFN-γ induced melanocyte cell death (cell viability),primary melanocytes [1],did not find a rescue effect; also recorded: unable to restore
"CN1C(=O)C(Cc2c[nH]c3ccccc23)NC1=S (centres unmarked) [NEC-1, Necrostatin-1]",rescue of IFN-γ induced melanocyte cell death (cell viability),primary melanocytes [1],unable to restore
"CC(C)[C@H](NC(=O)c1ccc2ccccc2n1)C(=O)N[C@@H](CC(=O)O)C(=O)COc1c(F)cccc1F [QVDOPH, Quinoline-Val Asp-Difluorophenoxymethylketone]",rescue of IFN-γ induced melanocyte cell death (cell viability),primary melanocytes [1],unable to restore
same,rescue of IFN-γ induced melanocyte cell death (cell viability),primary melanocytes [1]; listed as pan-caspase inhibitor,unable to rescue
"CCO[C@@H]1OC(=O)C[C@@H]1NC(=O)[C@@H]1CCCN1C(=O)[C@@H](NC(=O)c1ccc(N)c(Cl)c1)C(C)(C)C [VX-765, Belnacasan]",rescue of IFN-γ induced melanocyte cell death (cell viability),primary melanocytes [1],unable to restore
CXCL10: IFN-γ downstream cytokine added to melanocytes,effect on cell viability of melanocytes (individual cytokine),primary melanocytes [1]; day 7 of treatment,"not CXCL9, CXCL10, or CXCL11 significantly decreases"
IFN-α,"morphology change in melanocyte (loss of dendrite, ballooning of cytoplasm)",primary melanocytes [2],not IFN-α was found to contributes to morphology change
"NI-0501: another anti-IFN-γ antibody, described in U.S. Pat. No. 7,700,098 B2",Key Study Findings: mortalities,[3]; at all dose groups,There were mortalities
same,Key Study Findings: GI tract infection caused by Shigella sp. and Campylobacter sp.,"[3]; cynomolgus monkey, in vivo",infection was confirmed
same,Key Study Findings: monkeys early sacrificed because of severe clinical signs,[3]; from 18 monkeys,7 monkeys were early
